Entries after “also recorded” stand apart in the source; their conditions may differ. Peptide text beside a SMILES is read from it. * marks the point of attachment. Cbz = O=C(OCc1ccccc1)*
Legend:
Calpain I = target: T1, Calpain I (Homo sapiens, UniProt P07384); assay: Selectivity of protease inhibition: calpain I; format: biochemical
T1 sequence (P07384 1-714): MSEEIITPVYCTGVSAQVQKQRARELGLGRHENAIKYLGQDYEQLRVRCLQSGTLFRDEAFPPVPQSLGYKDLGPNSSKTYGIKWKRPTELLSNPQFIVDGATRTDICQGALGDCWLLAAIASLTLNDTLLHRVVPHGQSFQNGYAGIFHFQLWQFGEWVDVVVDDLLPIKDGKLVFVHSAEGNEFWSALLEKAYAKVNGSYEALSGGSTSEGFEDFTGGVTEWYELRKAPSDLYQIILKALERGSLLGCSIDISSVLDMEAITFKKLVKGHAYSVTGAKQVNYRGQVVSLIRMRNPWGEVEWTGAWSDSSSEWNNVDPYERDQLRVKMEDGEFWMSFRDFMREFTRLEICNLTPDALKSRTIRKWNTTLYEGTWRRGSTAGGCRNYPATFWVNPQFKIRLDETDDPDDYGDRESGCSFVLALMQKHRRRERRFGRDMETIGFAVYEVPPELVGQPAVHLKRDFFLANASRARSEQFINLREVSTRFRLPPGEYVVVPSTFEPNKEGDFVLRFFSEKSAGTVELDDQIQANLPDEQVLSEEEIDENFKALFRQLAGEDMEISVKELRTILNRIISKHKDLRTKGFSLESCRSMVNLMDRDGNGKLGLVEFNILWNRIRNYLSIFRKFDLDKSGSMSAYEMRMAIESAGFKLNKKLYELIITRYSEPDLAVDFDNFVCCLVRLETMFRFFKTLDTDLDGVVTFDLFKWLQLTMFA
T1 sequence (P04632 1-268 partner): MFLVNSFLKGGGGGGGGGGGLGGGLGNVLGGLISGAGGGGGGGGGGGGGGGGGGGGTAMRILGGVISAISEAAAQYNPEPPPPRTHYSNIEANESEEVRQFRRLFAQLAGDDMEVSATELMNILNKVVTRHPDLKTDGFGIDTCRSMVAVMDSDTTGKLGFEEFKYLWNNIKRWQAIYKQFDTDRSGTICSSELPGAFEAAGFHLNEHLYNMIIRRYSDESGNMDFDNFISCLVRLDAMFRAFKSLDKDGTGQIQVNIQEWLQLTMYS

Cathepsin B = Cathepsin B (Homo sapiens, UniProt P07858); assay: Selectivity of protease inhibition: cathepsin B; format: biochemical
[1] = target: T2, 20S proteasome chymotrypsin-like activity (Bos taurus, UniProt Q32KL2); assay: Kinetics of inhibition of 20S proteasome chymotrypsin-like activity (Suc-LLVY-AMC); format: biochemical, bovine; details: for κassoc = κobs/[I], Chymotrypsin-like activity (Suc-LLVY-AMC): 25° C.
T2 construct: from tissue; host or cells: bovine brain
Description: (§1) Experiments involving the proteasome were performed as follows: 20S proteasome (˜5 ng/μl) in 10 mM Tris-HCl, pH 7.5, 1 mM EDTA was incubated at 25° C. in the presence of lactacystin or lactacystin analogs in DMSO or MeOH [not exceeding 5% (v/v)]. Aliquots for fluorescence assay were removed at various times following addition of compound and diluted in 10 mM Tris-HCl, pH 7.5, 1 mM EDTA containing fluorogenic peptide substrates (100 μM final). Suc-LLVY-AMC, Cbz-GGR-βNA and […] (AMC=7-amido-4-methylcoumarin; βNA=β-naphthylamide) were used to assay for the chymotrypsin-like, trypsin-like and peptidylglutamyl-peptide hydrolyzing activities, respectively.
(§2) Fluorescent emission at 460 nm with excitation at 380 nm was measured for AMC-containing substrates, and emission at 410 nm with excitation at 335 nm was measured for βNA-containing substrates. The fluorescence assays were conducted at 25° C., each experiment was performed at least three times, and values represent mean±standard deviation.
(§3) The reversibility of the inhibitory effects was assessed by measuring residual peptidase activity after removal of excess inhibitor by extensive serial dilution/ultrafiltration.

Trypsin = target: T3, Trypsin (Bos taurus, UniProt P00760); assay: Selectivity of protease inhibition: trypsin; format: biochemical
T3 construct: gene PRSS1
T3 sequence (P00760 24-246): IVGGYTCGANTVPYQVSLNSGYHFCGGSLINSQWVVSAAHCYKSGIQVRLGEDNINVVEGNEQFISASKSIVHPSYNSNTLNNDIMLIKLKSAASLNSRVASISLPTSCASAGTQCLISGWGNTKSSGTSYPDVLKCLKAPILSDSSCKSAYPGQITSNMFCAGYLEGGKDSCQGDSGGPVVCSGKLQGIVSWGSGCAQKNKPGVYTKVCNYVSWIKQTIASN

Papain = target: T4, Papain (Carica papaya, UniProt P00784); assay: Selectivity of protease inhibition: papain; format: biochemical
T4 sequence (P00784 134-345): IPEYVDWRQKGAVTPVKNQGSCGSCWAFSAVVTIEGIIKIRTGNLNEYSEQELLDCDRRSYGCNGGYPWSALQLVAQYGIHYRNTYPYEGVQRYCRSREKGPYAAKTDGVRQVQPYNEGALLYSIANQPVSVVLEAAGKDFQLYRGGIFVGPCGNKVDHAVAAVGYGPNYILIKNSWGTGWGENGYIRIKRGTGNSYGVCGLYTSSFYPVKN

α-Chymotrypsin = α-Chymotrypsin (Bos taurus, UniProt P00766, DEL14-15/DEL147-148); assay: Selectivity of protease inhibition: α-chymotrypsin; format: biochemical
[2] = target: 20S proteasome peptidylglutamyl-peptide hydrolyzing activity (Bos taurus, UniProt Q3MHN0)
Description: as §1, §2, §3

[3] = target: T5, 20S proteasome trypsin-like activity (Bos taurus, UniProt Q2TBP0); assay: Kinetics of inhibition of 20S proteasome trypsin-like activity (Cbz-GGR-βNA); format: biochemical, bovine
T5 construct: from tissue; host or cells: bovine brain
Description: as §1, §2, §3

Calpain II = target: T6, Calpain II (Homo sapiens, UniProt P17655); assay: Selectivity of protease inhibition: calpain II; format: biochemical
T6 sequence (P17655 1-700): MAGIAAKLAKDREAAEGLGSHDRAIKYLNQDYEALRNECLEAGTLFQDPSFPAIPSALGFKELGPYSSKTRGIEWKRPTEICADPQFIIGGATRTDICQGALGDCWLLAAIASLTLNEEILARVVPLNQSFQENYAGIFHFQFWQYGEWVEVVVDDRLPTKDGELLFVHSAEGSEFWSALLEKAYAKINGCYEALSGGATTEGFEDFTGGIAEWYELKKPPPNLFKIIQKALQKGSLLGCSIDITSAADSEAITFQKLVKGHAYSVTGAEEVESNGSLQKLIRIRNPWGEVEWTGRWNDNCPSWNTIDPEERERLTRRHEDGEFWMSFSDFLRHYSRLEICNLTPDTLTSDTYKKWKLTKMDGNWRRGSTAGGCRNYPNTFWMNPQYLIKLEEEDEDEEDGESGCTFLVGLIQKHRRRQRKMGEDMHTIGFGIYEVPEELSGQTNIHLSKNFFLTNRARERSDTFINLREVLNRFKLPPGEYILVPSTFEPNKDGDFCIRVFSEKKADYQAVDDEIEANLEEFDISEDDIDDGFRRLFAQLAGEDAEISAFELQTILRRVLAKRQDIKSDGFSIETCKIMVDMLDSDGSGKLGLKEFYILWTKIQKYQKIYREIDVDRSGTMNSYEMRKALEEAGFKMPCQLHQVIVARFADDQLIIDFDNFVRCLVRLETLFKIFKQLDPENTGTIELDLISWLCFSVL
T6 sequence (P04632 1-268 partner): T1 sequence (P04632 1-268 partner)

p105 to p50 processing = assay: Proteasome dependent p105 to p50 processing in transfected COS cells (pulse-chase); format: cell-based, African green monkey; details: 50 μM, 1 h pretreatment, 2 hour chase
Description: COS cells were plated onto 100 mm dishes, then, with DEAE-Destran, either mock transfected, or transfected with 3 μg of pcDNA plasmid containing the human p105 cDNA. Forty-eight hrs after transfection, cells were pretreated for 1 hour with 0.5% DMSO, 50 μM calpain inhibitor II, 50 μM MG132, or 10 μM β-lactone. Cells were then pulse labelled with 250 uCi/plate of ^35S-methionine/cysteine for 15 minutes, and either harvested immediately or followed by a 2 hour chase with excess unlabelled methionine and cysteine. Cells were then lysed with SDS/Tris, and proteins were immunoprecipitated with anti-p50 antibodies (recognize the N-terminal half of the p105 protein). These proteins were then separated on a 10% SDS-polyacrylamide gel, which was then fixed, dried, and exposed to autoradiographic film.

PC12 cells = details: Tsubuki et al. 1993; cited from earlier work
IκB-α = assay: TNF-α dependent degradation of IκB-α in Hela cells (immunoblot); format: cell-based, human; details: 40 μM, 1 h pretreatment, 1,000 U/ml TNF-α
Description: Hela cells were plated onto 6-well plates in DME plus 10% fetal calf serum (3 mls/well). Cells were then pretreated with 0.125% DMSO 40 μM […] (carbobenzoxyl-leucinyl-leucinyl-leucinal-H)(40 μM, lanes 103), or 5 μM β-lactone for one hour, followed by treatment with 1,000 U/ml TNF-α or phosphate buffered saline (PBS). Cells were harvested after 0 min, 20 min, or 40 min of further incubation at 37° C. Cells were then lysed in buffer containing NP-40 and protease inhibitors, and the proteins separated on a 10% SDS-polyacrylamide gel. The proteins were then transferred to nitrocellulose and probed with antibodies against the C-terminal 20 amino acids of human IκB-α.

20S proteasome = target: T7, 20S proteasome (Bos taurus, UniProt Q2TBP0+Q32KL2); assay: Labeling of 20S proteasome subunits by tritiated compound, reverse-phase HPLC separation; format: binding, bovine
T7 construct: from tissue; host or cells: bovine brain
Description: This peak was isolated and treated with 10 μM [^3H]lactacystin or 10 μM [^3H]β-lactone for 24 h at 25° C. Trifluoroacetic acid (TFA) was added to 0.1%, and the sample was allowed to stand at room temperature for 20 min. Reverse-phase HPLC was then carried out at room temperature using a Vydac C4 column (300 Å/4.6×150 mm) with 20-40% acetonitrile/0.1% TFA over 10 min and then 40-55% acetonitrile/0.1% TFA over 30 min (flow rate=0.8 ml/min). An IN/US β-RAM in-line scintillation detector was used to monitor radioactivity.

[4] = residual activity after removal of excess inhibitor by serial dilution/ultrafiltration
[5] = relative to kassoc for chymotrypsin-like activity

## CC(=O)N[C@@H](CSC(=O)[C@]1([C@@H](O)C(C)C)NC(=O)[C@H](C)[C@@H]1O)C(=O)O [Lactacystin, lactacystin]
Calpain I; 100 μM, Suc-LLVY-AMC, 25° C.
  Effect of lactacystin (100 μM) on Calpain I: No inhibition
Calpain I; concentration not given
  inhibition of calpain I activity: do not inhibit
Cathepsin B; 100 μM, Cbz-RR-AMC, 25° C.
  Effect of lactacystin (100 μM) on Cathepsin B: No inhibition
Cathepsin B; concentration not given
  inhibition of cathepsin activity: do not inhibit
[1]; compound 10 μM
  κassoc = κobs/[I], Chymotrypsin-like activity (Suc-LLVY-AMC): 194 ± 15 s^−1M^−1
[1]; read-out: kassoc, apparent second-order rate constant for association, chymotrypsin-like activity
  kinact/KI: 194 ± 15 M⁻¹ s⁻¹
[1]; [4]
  reversibility of inhibition of chymotrypsin-like activity: irreversibly; also recorded: still completely inhibited
Trypsin; 100 μM, Cbz-GGR-βNA, 25° C.
  Effect of lactacystin (100 μM) on Trypsin: No inhibition
Trypsin; concentration not given
  inhibition of trypsin activity: do not inhibit
Papain; 100 μM, Cbz-RR-AMC, 25° C.
  Effect of lactacystin (100 μM) on Papain: No inhibition
Papain; concentration not given
  inhibition of papain activity: do not inhibit
α-Chymotrypsin; 100 μM, Suc-LLVY-AMC, 25° C.
  Effect of lactacystin (100 μM) on α-Chymotrypsin: No inhibition
α-Chymotrypsin; concentration not given
  inhibition of α-chymotrypsin activity: do not inhibit
[2]; compound 100 μM, 25° C.
  κassoc = κobs/[I], Peptidylglutamyl-peptide hydrolyzing activity (Cbz-LLE-βNA): 4.2 ± 0.6 s^−1M^−1
[2]; [5]
  PGPH activity inhibited more slowly than chymotrypsin-like activity: 50 fold
[2]; [4]
  reversibility of inhibition of PGPH activity: reversibly; also recorded: return of the catalytic activity
[3]; compound 10 μM, 25° C.
  κassoc = κobs/[I], Trypsin-like activity (Cbz-GGR-βNA): 10.1 ± 1.8 s^−1M^−1
[3]; [5]
  trypsin-like activity inhibited more slowly than chymotrypsin-like activity: 20 fold
[3]; [4]
  reversibility of inhibition of trypsin-like activity: irreversibly; also recorded: still completely inhibited
Calpain II; 100 μM, Suc-LLVY-AMC, 25° C.
  Effect of lactacystin (100 μM) on Calpain II: No inhibition
Calpain II; concentration not given
  inhibition of calpain II activity: do not inhibit

## CSCC[C@@H](C=O)NC(=O)[C@H](CC(C)C)NC(=O)[C@H](CC(C)C)NC(C)=O [calpain inhibitor II] (Ac-Leu-Leu-Met-aldehyde)
p105 to p50 processing
  processing of p105 to p50 (appearance of p50): no effect

## CC(=O)NC(CSC(=O)C1(C(O)C(C)C)NC(=O)C(C)C1O)C(=O)O [(6R,7S)Lactacystin (6-epi,7-epi), (6R,7S)-lactacystin]
[1]; compound 12.5 μM
  κassoc = κobs/[I], Chymotrypsin-like activity (Suc-LLVY-AMC): No inhibition

## CC(C)C[C@@H](C=O)NC(=O)[C@H](CC(C)C)NC(=O)[C@H](CC(C)C)NC(=O)OCc1ccccc1 [MG132, carbobenzoxyl-leucinyl-leucinyl-leucinal-H] (Cbz-Leu-Leu-Leu-aldehyde)
PC12 cells
  optimal concentration for inducing neurite outgrowth: 30 nM
p105 to p50 processing
  processing of p105 to p50 (appearance of p50): completely blocks the appearance of p50
IκB-α
  degradation of IκB after TNF induction: blocks the degradation
  phosphorylated form of IκB: stabilizes the phosphorylated form

## 6-deoxylactacystin
[1]; compound 12.5 μM
  κassoc = κobs/[I], Chymotrypsin-like activity (Suc-LLVY-AMC): No inhibition

## CC(=O)N[C@@H](CSC(=O)[C@]1([C@@H](O)C(C)C)NC(=O)[C@H](C)[C@@H]1O)C(=O)O [[^3H]lactacystin]
20S proteasome; 10 μM, 24 h at 25° C., first peak ~32 kDa (α chain), second peak ~24 kDa (X/MB1)
  association of radioactivity with HPLC-separated proteasome subunit peaks: exclusively with the first two peaks
20S proteasome; 24 hour reaction
  labeling of the first peak (~32 kDa protein): significant labeling
